Experimental findings from patent US20060079453A1, “Hla binding peptides and their uses” (priority 2002, published 2006) are described below.

Where two headings read alike, the source gives them in different places. No end group written: not given here.

Some targets named below: HLA-DR DRB4*0101 (DR53) (Homo sapiens, UniProt P01903+P13762, G164S); HLA-DR DRB1*0401 (DR4) (Homo sapiens, UniProt P01903+P01911, A100K/A169T/F76Y/I96L/K127E/L162R/M171V/N62H/P40V/Q125Y/R42H/S133A/S149N/S66Y/V115G/V209L/W38E); HLA-DR DRB1*0101 (DR1) (Homo sapiens, UniProt P01903+P01911, A100R/D57E/F55L/F60I/F76Y/I96L/L162R/M171V/P40L/Q125E/R42F/V115G/Y59C); HLA-DR DRB1*0701 (DR7) (Homo sapiens, UniProt P01903+P01911, A100R/A102G/A103Q/D57E/D86V/E43K/F76Y/K127E/L162R/M171V/P40G/Q125H/Q99D/R33Q/R42Y/R54Q/S133A/S66F/T210M/V115G/Y107V/Y59L/Y89S).

Common to all, as to assay: biochemical
Holding throughout (assay type): binding

A further assay has as its target HLA-DR DRB1*1302 (DR13) (Homo sapiens, UniProt P01903+P01911, A100E/A169T/K41T/L162R/M171V/P40S/Q125H/Q178H/Q39Y/Q99D/R42S/S66N/T262R/V115G/W38E/Y61H). As to conditions: read-out: DRBI *1302.
In the next assay the target is HLA-DR DRB5*0101 (DR51) (Homo sapiens, UniProt P01903+Q30154). As to conditions: DRB5 *0101.

HLA-DR DRB1*1302 (DR13), sequence (P01903 26-254 limits assumed, other chains not shown): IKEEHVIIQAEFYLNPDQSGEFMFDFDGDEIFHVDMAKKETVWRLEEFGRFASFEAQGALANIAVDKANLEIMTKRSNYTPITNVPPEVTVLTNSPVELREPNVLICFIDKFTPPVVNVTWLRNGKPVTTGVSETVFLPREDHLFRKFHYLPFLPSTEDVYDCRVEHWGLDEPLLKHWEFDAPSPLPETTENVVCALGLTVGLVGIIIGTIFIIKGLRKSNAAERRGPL

As for IRNLALQTLPAM, on HLA-DR DRB4*0101 (DR53) (DRB4 *0101), the IC50 was determined as 2 nM. Still for that read-out and setting: under FLGQQQPFPPQ stands 31 nM.

With RNGYRALMDKSLHVGTQCALTRR, on HLA-DR DRB1*0401 (DR4) (DRB1 *0401), the IC50 is 512 nM. Still for that read-out and setting: under QNILFSNAPLGPQFP stands 195 nM. Turning to YSFFPSI [YSFFPSI], at HLA-DR DRB1*0101 (DR1) (DRB1 *0101), the IC50 is no less than 50000 nM. As to `C[C@H](N)C(=O)N[C@@H](C)C(=O)N[C@@H](C)C(=O)N[C@@H](C)C(=O)N[C@@H](C)C(=O)N[C@@H](C)C(=O)N[C@@H](C)C(=O)N[C@@H](C)C(=O)N[C@@H](C)C(=O)N[C@@H](C)C(=O)N[C@@H](C)C(=O)N[C@@H](CC(N)=O)C(=O)N[C@@H](C)C(=O)O`, the IC50 against HLA-DR DRB1*0101 (DR1) (DRB1 *0101) is no less than 50000 nM; against HLA-DR DRB1*0401 (DR4) (DRB1 *0401), 1000 nM. The compound AFAAAKTAA yielded an IC50 at HLA-DR DRB1*0401 (DR4) (DRB1 *0401) of 571 nM. With AAKAAAAAAA(10)AA, the IC50 on HLA-DR DRB1*0401 (DR4) (read-out: DRB1 *0401) is greater than 889 nM. PQPFRPQKPYPQ gave an IC50 against HLA-DR DRB4*0101 (DR53) (DRB4 *0101) of 22 nM.

For QKWAAVVVPS, the IC50 at HLA-DR DRB1*0101 (DR1) (DRB1 *0101) is no less than 50000 nM; against HLA-DR DRB1*0401 (DR4) (DRB1 *0401), 1000 nM. In the case of AAEAAAATAKAAA, the IC50 against HLA-DR DRB1*0101 (DR1) (DRB1 *0101) turned out to be 2500 nM. Turning to PKYFKQRLLKFAT, the IC50 at HLA-DR DRB1*0401 (DR4) (read-out: DRB1 *0401) stood at 400 nM. For ACAAAKATAAAA(10)AA, at HLA-DR DRB1*0101 (DR1) (read-out: DRB1 *0101), the IC50 turned out to be 5000 nM.

As to AAFIFIGGGKIKA, the figures for the IC50 against HLA-DR DRB1*0101 (DR1) (DRB1 *0101) and on HLA-DR DRB1*0401 (DR4) (DRB1 *0401) were no less than 50000 nM and 195 nM, respectively.

As for QKQVQMMIMTKFMGV, the IC50 on HLA-DR DRB1*0101 (DR1) (read-out: DRB1 *0101) was determined as 121 nM; at HLA-DR DRB1*0701 (DR7) (read-out: DRB1 *0701), 3620 nM. As for ESTGMTPEKVPVSEVM, the IC50 was greater than 64400 nM on HLA-DR DRB4*0101 (DR53) (read-out: DRB4 *0101) and greater than 17500 nM at HLA-DR DRB1*1302 (DR13). In turn, PAYEKLSAEQSPPPY showed an IC50 on HLA-DR DRB1*0401 (DR4) (DRB1 *0401) of 479 nM.

Turning to AAKGIKIGFGIFA, the IC50 on HLA-DR DRB1*0101 (DR1) (DRB1 *0101) was no less than 50000 nM; against HLA-DR DRB1*0401 (DR4) (DRB1 *0401) it was 471 nM. In the case of EERVKKPLSEITIRC, the IC50 stood at 2990 nM against HLA-DR DRB4*0101 (DR53) (DRB4 *0101), 9450 nM against HLA-DR DRB1*0701 (DR7) (DRB1 *0701), 11900 nM on HLA-DR DRB1*0401 (DR4) (DRB1 *0401) and 7910 nM at HLA-DR DRB5*0101 (DR51). TWQLNGEELIQDM: the IC50 at HLA-DR DRB1*0101 (DR1) (read-out: DRB1 *0101) is no less than 50000 nM. On to (43)AAIGFFFFKKGIA, for which the IC50 at HLA-DR DRB1*0401 (DR4) (read-out: DRB1 *0401) was determined as 258 nM. On to AFLRAAAAAAFAA, for which the IC50 against HLA-DR DRB1*0101 (DR1) (DRB1 *0101) was no less than 50000 nM; on HLA-DR DRB1*0401 (DR4) (DRB1 *0401), 400 nM.

For `CC(C)C[C@H](NC(=O)[C@H](CCCCN)NC(=O)[C@H](C)NC(=O)[C@@H](NC(=O)[C@H](CCCCN)NC(=O)[C@H](CCCNC(=N)N)NC(=O)[C@H](CO)NC(=O)[C@H](CC(C)C)NC(=O)[C@H](C)NC(=O)[C@H](C)NC(=O)[C@H](CCC(N)=O)NC(=O)[C@H](Cc1ccccc1)NC(=O)[C@H](CCC(=O)O)NC(=O)[C@H](CO)NC(=O)[C@@H](N)CCC(=O)O)C(C)C)C(=O)O`, at HLA-DR DRB1*0401 (DR4) (DRB1 *0401), the IC50 came to 579 nM. Turning to AWVAWRNRCK, the values for the IC50 at HLA-DR DRB1*0101 (DR1) (read-out: DRB1 *0101) and at HLA-DR DRB1*0701 (DR7) (read-out: DRB1 *0701) were no less than 50000 nM and greater than 12500 nM, respectively. For QFLGQQQPF, at HLA-DR DRB4*0101 (DR53) (DRB4 *0101), the IC50 was 5.3 nM. AFAAAKTAA(72): the IC50 on HLA-DR DRB1*0101 (DR1) (read-out: DRB1 *0101) worked out at 5000 nM. At HLA-DR DRB4*0101 (DR53) (DRB4 *0101), PQPFKPQQPYPQ came in with an IC50 of 19 nM. At HLA-DR DRB4*0101 (DR53) (DRB4 *0101), NLALQTLPAMCNVY returned an IC50 of 27 nM. In turn, AAANAAAAAAAAA gave an IC50 at HLA-DR DRB1*0101 (DR1) of no less than 50000 nM. Turning to (52)AAAATKAAAA, the IC50 with HLA-DR DRB1*0101 (DR1) (read-out: DRB1 *0101) came to 2000 nM. Take `C[C@H](N)C(=O)N[C@@H](C)C(=O)N[C@@H](C)C(=O)N[C@@H](C)C(=O)N[C@@H](C)C(=O)N[C@@H](C)C(=O)N[C@@H](C)C(=O)N[C@@H](C)C(=O)N[C@@H](C)C(=O)N[C@@H](C)C(=O)N[C@@H](C)C(=O)N[C@@H](C)C(=O)N[C@@H](CC(N)=O)C(=O)O`: the IC50 at HLA-DR DRB1*0101 (DR1) (DRB1 *0101) was no less than 50000 nM; against HLA-DR DRB1*0401 (DR4) (DRB1 *0401) it was 500 nM. The corresponding values for AAAAASAAAAAAA are no less than 50000 nM and 235 nM.

AALKATAAAAAAA: the IC50 on HLA-DR DRB1*0101 (DR1) (DRB1 *0101) was no less than 50000 nM; at HLA-DR DRB1*0401 (DR4) (DRB1 *0401) it was 800 nM. In turn, PFRPQQPYPQ registered an IC50 against HLA-DR DRB4*0101 (DR53) (DRB4 *0101) of 42 nM. As to `CC[C@H](C)[C@H](N)C(=O)NCC(=O)N[C@@H](Cc1c[nH]cn1)C(=O)N[C@@H](CC(C)C)C(=O)N[C@@H](Cc1ccc(O)cc1)C(=O)N[C@H](C(=O)N[C@@H](Cc1ccccc1)C(=O)N[C@@H](C)C(=O)N[C@H](C(=O)N[C@@H](CS)C(=O)N[C@@H](CC(C)C)C(=O)NCC(=O)N[C@@H](CC(C)C)C(=O)N[C@@H](CO)C(=O)N[C@@H](Cc1ccc(O)cc1)C(=O)N[C@@H](CC(=O)O)C(=O)NCC(=O)N[C@@H](CC(C)C)C(=O)O)[C@@H](C)O)[C@@H](C)CC`, on HLA-DR DRB1*0401 (DR4) (DRB1 *0401), the IC50 was greater than 816 nM. On HLA-DR DRB1*0101 (DR1) (DRB1 *0101), `C[C@H](N)C(=O)N[C@@H](CO)C(=O)N[C@@H](C)C(=O)N[C@@H](C)C(=O)N[C@@H](C)C(=O)N[C@@H](C)C(=O)N[C@@H](C)C(=O)N[C@@H](C)C(=O)N[C@@H](C)C(=O)N[C@@H](C)C(=O)N[C@@H](C)C(=O)N[C@@H](C)C(=O)N[C@@H](C)C(=O)O` showed an IC50 of no less than 50000 nM. With AFLRQAAAAAFAAY, the IC50 at HLA-DR DRB1*0101 (DR1) (DRB1 *0101) was 2500 nM; at HLA-DR DRB1*0401 (DR4) (DRB1 *0401) it was 1000 nM. Ac-ASQKRPSQRHGSKYLATAST yielded an IC50 on HLA-DR DRB5*0101 (DR51) of 4560 nM. Turning to DPNANPNVDPNAN, the IC50 was greater than 15600 nM at HLA-DR DRB1*0701 (DR7) (read-out: DRB1 *0701) and 738 nM at HLA-DR DRB1*0401 (DR4) (read-out: DRB1 *0401). Take KSLLSTNLPYGRTNL: the IC50 against HLA-DR DRB1*0701 (DR7) (DRB1 *0701) was 50000 nM; against HLA-DR DRB1*0401 (DR4) (DRB1 *0401), 690 nM. Take `C[C@H](NC(=O)[C@H](C)NC(=O)[C@H](C)NC(=O)[C@H](C)NC(=O)[C@H](C)NC(=O)[C@H](C)NC(=O)[C@H](C)NC(=O)[C@H](C)NC(=O)[C@H](C)NC(=O)[C@H](C)NC(=O)[C@H](C)NC(=O)[C@H](C)NC(=O)[C@@H](N)Cc1ccccc1)C(=O)O`: the IC50 on HLA-DR DRB1*0401 (DR4) (DRB1 *0401) amounted to 200 nM. Regarding YAR(15A)RQTTLKA, the IC50 on HLA-DR DRB1*0101 (DR1) (read-out: DRB1 *0101) was determined as 1.6 nM; on HLA-DR DRB1*0701 (DR7) (read-out: DRB1 *0701) it was 8330 nM; at HLA-DR DRB1*0401 (DR4) (read-out: DRB1 *0401), 0.35 nM.
